Test: Pharmacokinetic study in rat plasma after oral administration of FKQJF extract (UFLC–MS/MS)
Format: in vivo, Sprague-Dawley (SD) rats
Conditions: Sprague-Dawley, oral FKQJF extract, single dose 3.2 g/kg, mean ± SD
Description: (§1) Aliquots of 100 μL plasma samples were mixed with 10 μL I.S. samples (1 μg/mL, in MeOH), then added with 500 μL ACN, respectively, and vortexed for 5 min, centrifugated at 10,000 rpm for 10 min, the supernatants were transferred into clean vials and dried in a vacuum centrifugal concentrator at 1200 rpm, 37 °C. After that, 100 μL ACN was added and ultrasonic (frequency 40 kHz, power 250 W) extracted for 5 min to dissolve the dry residue, vortexed for 1 min and centrifugated at 10,000 rpm for 5 min, 1 μL of each final supernatant was injected into UFLC–MS/MS for analysis.
An 8050 UFLC–MS/MS system equipped with LC-30A binary pump, a SIL-30AC autosampler, a SPD-M30A PDA detector, a CTO-20AC column oven, and a 8050 triple quadrupole mass spectrometer with an electrospray ionization source (ESI) was applied to detect and quantify FKQJF compounds in plasma samples. Data were acquired and processed with the software LabSolution (Ver. 5.6).
A Kinetex XB-C18 HPLC column (100 × 2.1 mm, 2.6 μm) linked with an equivalent guard column was used for chromatographic separation. The aqueous phase contained 0.2% formic acid was used as mobile phase A, and organic phase ACN as mobile phase B. The gradient elution method using in this program was: 3–5 min, 28–31% B; 5–7 min, 31–34% B; 7–9 min, 34–65% B; 9–10 min, 65–95% B; 10–11.5 min, 95% B. The flow rate of mobile phase, column temperature and autosampler temperature was 0.4 mL/min, 30 °C and 4 °C, respectively. The injection volume of each sample was set as 1 μL. The main MS spectrum parameters were set as follows: the flow rate of drying gas (N2) was 10.0 L/min; the atomized gas was 3.0 L/min and the heating gas flow rate was 10.0 L/min. The main temperatures of interface, desolvation and heat block was 300 °C, 250 °C and 400 °C, respectively. And, the interface and detector voltage were 3 kV and 1.8 kV.
Rats were divided into a blank group and a FKQJF administration group (6 rats for each), and fasted for 24 h. Each rat of the administration group was given FKQJF extract suspension at a single dose of 3.2 g FKQJF/kg body weight through oral administration in parallel. Blood samples (0.25 mL) were gathered from the orbital venous plexus of each rat, with FKQJF group gathered at 14 serial timepoints (6 rats for each) as 0.083 h, 0.16 h, 0.33 h, 0.5 h, 0.75 h, 1.0 h, 1.5 h, 2 h, 3 h, 4 h, 6 h, 8 h, 12 h and 24 h after drug administration. The blood samples were centrifugated at 6000g for 10 min to isolate plasma and stored at − 20 °C for further analysis.
Data were analyzed using the Drug and Statistics (DAS) Software version 2.0 (DAS 2.0, Mathematical Pharmacology Professional Committee of China, Shanghai, China). The non-compartmental mode was applied to obtain the following PK parameters: area under the plasma concentration–time curve from time zero to the time of last quantifiable concentration (AUC0→t) and area under the plasma concentration–time curve to time infinity (AUC0→∞), the elimination half-life (t1/2), mean retention time to last sampling time (MRT0→t) and mean retention time to infinity (MRT0→∞). The maximum plasma concentration (Cmax) and the time to maximum concentration (Tmax) were observed directly from the concentration–time (C–T) curves and measured data. All data are presented as mean ± SD.

AUC(0-inf) [ng·h/mL] | AUC(0-t) [ng·h/mL] | Cmax [ng/mL] | half-life [h] | SMILES
550 ± 70.7 | 468 ± 48.4 | 87.7 ± 26.6 | 7.68 ± 3.01 | O=c1c(-c2ccc(O)cc2)coc2cc(O[C@@H]3O[C@H](CO)[C@@H](O)[C@H](O)[C@H]3O)cc(O)c12 [Analyte 7, genistin]
2140 ± 168 | 1800 ± 155 | 433 ± 53.1 | 2.7 ± 0.54 | O=C(O)c1ccccc1O [Analyte 8, salicylic acid]

SMILES | AUC(0-inf) [ng·h/mL] | AUC(0-t) [ng·h/mL] | Cmax [ng/mL] | half-life [h]
COc1cc2c(cc1O)CC[n+]1cc3c(OC)c(OC)ccc3cc1-2 [Analyte 9, jatrorrhizine] | 2550 ± 277 | 1090 ± 110 | 270 ± 24 | 9.65 ± 4.91

Same assay, conditions: Sprague-Dawley, oral FKQJF extract, single dose 3.2 g/kg, mean ± SD, read-out: MRT0→t

MRT last [h] | SMILES
9.04 ± 0.68 | O=c1c(-c2ccc(O)cc2)coc2cc(O[C@@H]3O[C@H](CO)[C@@H](O)[C@H](O)[C@H]3O)cc(O)c12 [Analyte 7, genistin]
2.88 ± 0.15 | O=C(O)c1ccccc1O [Analyte 8, salicylic acid]

SMILES | MRT last [h]
COc1cc2c(cc1O)CC[n+]1cc3c(OC)c(OC)ccc3cc1-2 [Analyte 9, jatrorrhizine] | 8.96 ± 0.4

Same assay, conditions: Sprague-Dawley, oral FKQJF extract, single dose 3.2 g/kg, mean ± SD, read-out: MRT0→∞

MRT inf [h] | SMILES
14.2 ± 3.28 | O=c1c(-c2ccc(O)cc2)coc2cc(O[C@@H]3O[C@H](CO)[C@@H](O)[C@H](O)[C@H]3O)cc(O)c12 [Analyte 7, genistin]
4.31 ± 0.67 | O=C(O)c1ccccc1O [Analyte 8, salicylic acid]

SMILES | MRT inf [h]
COc1cc2c(cc1O)CC[n+]1cc3c(OC)c(OC)ccc3cc1-2 [Analyte 9, jatrorrhizine] | 10.5 ± 4.72

Same assay, conditions: Sprague-Dawley, oral FKQJF extract, single dose 3.2 g/kg, mean ± SD, read-out: Tmax

Tmax [h] | SMILES
0.17 | O=c1c(-c2ccc(O)cc2)coc2cc(O[C@@H]3O[C@H](CO)[C@@H](O)[C@H](O)[C@H]3O)cc(O)c12 [Analyte 7, genistin]
1.67 ± 0.29 | O=C(O)c1ccccc1O [Analyte 8, salicylic acid]

SMILES | Tmax [h]
COc1cc2c(cc1O)CC[n+]1cc3c(OC)c(OC)ccc3cc1-2 [Analyte 9, jatrorrhizine] | 1.83 ± 0.29

Same assay, conditions: oral FKQJF extract 3.2 g/kg

shape of the plasma concentration–time curve | SMILES
double-peaks | O=c1c(-c2ccc(O)cc2)coc2cc(O[C@@H]3O[C@H](CO)[C@@H](O)[C@H](O)[C@H]3O)cc(O)c12 [Analyte 7, genistin]
double-peaks | O=C(O)c1ccccc1O [Analyte 8, salicylic acid]

Test: Ordinary stability of QC samples (room temperature for 8 h)
Format: physicochemical, rat
Conditions: plasma QC, spiked 25 ng/mL, room temperature 8 h
Description: as §1
(§2) Six replicates of low, medium and high concentrations of quality control (QC) samples were used to verify the stabilities under different conditions including: place at room temperature for 8 h, freeze (− 20 °C) and thaw for three times, and store at − 20 °C for 20 days.

SMILES | Ordinary stability Mean [%]
COc1cc2c(cc1O)CC[n+]1cc3c(OC)c(OC)ccc3cc1-2 [Analyte 9, jatrorrhizine] | 104.79

Same assay, conditions: plasma QC, spiked 50 ng/mL, room temperature 8 h

Ordinary stability Mean [%] | SMILES
93.52 | O=c1c(-c2ccc(O)cc2)coc2cc(O[C@@H]3O[C@H](CO)[C@@H](O)[C@H](O)[C@H]3O)cc(O)c12 [Analyte 7, genistin]
95.42 | O=C(O)c1ccccc1O [Analyte 8, salicylic acid]

Same assay, conditions: plasma QC, spiked 75 ng/mL, room temperature 8 h

SMILES | Ordinary stability Mean [%]
COc1cc2c(cc1O)CC[n+]1cc3c(OC)c(OC)ccc3cc1-2 [Analyte 9, jatrorrhizine] | 93.01

Same assay, conditions: plasma QC, spiked 150 ng/mL, room temperature 8 h

SMILES | Ordinary stability Mean [%]
COc1cc2c(cc1O)CC[n+]1cc3c(OC)c(OC)ccc3cc1-2 [Analyte 9, jatrorrhizine] | 92.51

Same assay, conditions: plasma QC, spiked 250 ng/mL, room temperature 8 h

Ordinary stability Mean [%] | SMILES
84.19 | O=c1c(-c2ccc(O)cc2)coc2cc(O[C@@H]3O[C@H](CO)[C@@H](O)[C@H](O)[C@H]3O)cc(O)c12 [Analyte 7, genistin]
108.42 | O=C(O)c1ccccc1O [Analyte 8, salicylic acid]

Same assay, conditions: plasma QC, spiked 500 ng/mL, room temperature 8 h

Ordinary stability Mean [%] | SMILES
103.60 | O=C(O)c1ccccc1O [Analyte 8, salicylic acid]

Test: Freeze–thaw stability of QC samples (−20 °C, three times)
Format: physicochemical, rat
Conditions: plasma QC, spiked 25 ng/mL, freeze (−20 °C) and thaw three times
Description: as §1, §2

SMILES | Freeze–thaw stability Mean [%]
COc1cc2c(cc1O)CC[n+]1cc3c(OC)c(OC)ccc3cc1-2 [Analyte 9, jatrorrhizine] | 86.77

Same assay, conditions: plasma QC, spiked 50 ng/mL, freeze (−20 °C) and thaw three times

Freeze–thaw stability Mean [%] | SMILES
84.84 | O=c1c(-c2ccc(O)cc2)coc2cc(O[C@@H]3O[C@H](CO)[C@@H](O)[C@H](O)[C@H]3O)cc(O)c12 [Analyte 7, genistin]
80.11 | O=C(O)c1ccccc1O [Analyte 8, salicylic acid]

Same assay, conditions: plasma QC, spiked 150 ng/mL, freeze (−20 °C) and thaw three times

SMILES | Freeze–thaw stability Mean [%]
COc1cc2c(cc1O)CC[n+]1cc3c(OC)c(OC)ccc3cc1-2 [Analyte 9, jatrorrhizine] | 113.07

Same assay, conditions: plasma QC, spiked 250 ng/mL, freeze (−20 °C) and thaw three times

Freeze–thaw stability Mean [%] | SMILES
92.61 | O=c1c(-c2ccc(O)cc2)coc2cc(O[C@@H]3O[C@H](CO)[C@@H](O)[C@H](O)[C@H]3O)cc(O)c12 [Analyte 7, genistin]
102.50 | O=C(O)c1ccccc1O [Analyte 8, salicylic acid]

Same assay, conditions: plasma QC, spiked 500 ng/mL, freeze (−20 °C) and thaw three times

Freeze–thaw stability Mean [%] | SMILES
88.21 | O=C(O)c1ccccc1O [Analyte 8, salicylic acid]

Test: Long-term stability of QC samples (−20 °C for 20 days)
Format: physicochemical, rat
Conditions: plasma QC, spiked 25 ng/mL
Description: as §1, §2

SMILES | Long-term stability Mean [%]
COc1cc2c(cc1O)CC[n+]1cc3c(OC)c(OC)ccc3cc1-2 [Analyte 9, jatrorrhizine] | 80.63

Same assay, conditions: plasma QC, spiked 50 ng/mL

Long-term stability Mean [%] | SMILES
118.09 | O=c1c(-c2ccc(O)cc2)coc2cc(O[C@@H]3O[C@H](CO)[C@@H](O)[C@H](O)[C@H]3O)cc(O)c12 [Analyte 7, genistin]
109.80 | O=C(O)c1ccccc1O [Analyte 8, salicylic acid]

Same assay, conditions: plasma QC, spiked 75 ng/mL

SMILES | Long-term stability Mean [%]
COc1cc2c(cc1O)CC[n+]1cc3c(OC)c(OC)ccc3cc1-2 [Analyte 9, jatrorrhizine] | 91.97

Same assay, conditions: plasma QC, spiked 150 ng/mL

SMILES | Long-term stability Mean [%]
COc1cc2c(cc1O)CC[n+]1cc3c(OC)c(OC)ccc3cc1-2 [Analyte 9, jatrorrhizine] | 98.06

Same assay, conditions: plasma QC, spiked 250 ng/mL

Long-term stability Mean [%] | SMILES
104.72 | O=c1c(-c2ccc(O)cc2)coc2cc(O[C@@H]3O[C@H](CO)[C@@H](O)[C@H](O)[C@H]3O)cc(O)c12 [Analyte 7, genistin]
114.13 | O=C(O)c1ccccc1O [Analyte 8, salicylic acid]

Same assay, conditions: plasma QC, spiked 500 ng/mL

Long-term stability Mean [%] | SMILES
97.81 | O=c1c(-c2ccc(O)cc2)coc2cc(O[C@@H]3O[C@H](CO)[C@@H](O)[C@H](O)[C@H]3O)cc(O)c12 [Analyte 7, genistin]
87.97 | O=C(O)c1ccccc1O [Analyte 8, salicylic acid]

— article PMC7382147, “An effective UFLC–MS/MS method used to study pharmacokinetics of major constituents of Fukeqianjin formula in rat plasma” (Chinese Medicine, 2020)
